Values quoted from earlier work as cited in US20060211662A1, “Combination therapy for topical application in the treatment of age-related macular degeneration and ocular hypertension” (priority 2005, published 2006).

What was measured:
[1] = for androgenic (virilizing) activity relative to standards: relative to standards (typically testosterone)
[2] = for anabolic activity relative to standards: relative to standards (typically testosterone)

Compound	androgenic (virilizing) activity relative to standards [1]	anabolic activity relative to standards [2]	androgenic activity as percent of methyltestosterone ([1]; relative to methyltestosterone) [%]	anabolic activity as percent of methyltestosterone ([2]; relative to methyltestosterone) [%]
C[C@]12C/C(=C/O)C(=O)C[C@@H]1CC[C@@H]1[C@@H]2CC[C@@]2(C)[C@H]1CC[C@]2(C)O [oxymetholone]	unchanged	enhanced		
C[C@]12CCC(=O)C[C@@H]1CC[C@@H]1[C@@H]2CC[C@]2(C)[C@@H](O)CC[C@@H]12 [dihydrotestosterone]	unchanged	enhanced		
C[C@]12Cc3c[nH]nc3C[C@@H]1CC[C@@H]1[C@@H]2CC[C@@]2(C)[C@H]1CC[C@]2(C)O [stanozolol]	decreased	increased		
CCC(=O)O[C@H]1CC[C@H]2[C@@H]3CCC4=CC(=O)CC[C@@H]4[C@H]3CC[C@]12C [19-nortestosterone propionate]	decreased	unchanged		
C[C@]1(O)CC[C@H]2[C@@H]3CCC4=CC(=O)CC[C@]4(C)[C@@]3(F)[C@@H](O)C[C@@]21C [fluoxymesterone]	augmented	even larger increase		
C[C@]12COC(=O)C[C@@H]1CC[C@@H]1[C@@H]2CC[C@@]2(C)[C@H]1CC[C@]2(C)O [oxandrolone, 17 alpha-methyl-17β-hydroxy-2-oxa-5 alpha-androstan-3-one]	decreased	increased	24	322
